Measured values from patent publication US9688695B2, “Imidazothiadiazole and imidazopyrazine derivatives as protease activated receptor 4 (PAR4) inhibitors for treating platelet aggregation” (BRISTOL-MYERS SQUIBB COMPANY, priority 2012, dated 2017).

biological target: PAR4 (Homo sapiens (Human), UniProt Q96RI0); assay: FLIPR assay in PAR4-expressing HEK293 cells (PAR4 antagonist activity, calcium mobilization); format: cell-based; conditions: H-Ala-Phe(4-F)-Pro-Gly-Trp-Leu-Val-Lys-Asn-Gly-NH2-induced calcium mobilization
From the text: The FLIPR assay is an exemplary in vitro assay for measuring the activity of the PAR4 antagonists of the present invention. In this assay, intracellular calcium mobilization is induced in PAR4 expressing cells by a PAR4 agonist and calcium mobilization is monitored. See, e.g., Example A.
HEK293 cells stably expressing PAR4 were generated by a standard method of transfection of human […] cDNA expression vector or by RAGE technology from Athersys Inc. (Cleveland, Ohio) and selected based on PAR4 protein expression of mRNA expression. […] These cells express endogenous PAR1 and can elicit calcium signal upon stimulation with PAR1 agonist peptide.
Counter screens for agonist activity and PAR1 antagonist activity were also performed. Briefly, HEK293 EBNA PAR4 clone 20664.1J cells were plated 24 hrs. prior to experiment in 384 well, Poly-D-Lysine coated, black, clear bottom plates (Greiner Bio-One, Monroe, N.C.). Cells were plated at 20,000 cells/well in […] growth medium and incubated at 37° C. with 5% CO2 overnight. At time of assay, media was replaced with 40 μl 1× Hank's Buffered Saline Solution (HBSS) (with 10 mM HEPES) and 20 μl test compound also diluted in 1×HBSS buffer was added at various concentrations and 0.67% DMSO final concentration on the FDSS for agonist measurement. The cells were then incubated for 30 minutes at room temperature followed by addition of 20 μl of agonist peptide for antagonist measurement on the FDSS.
As indicated above, the FLIPR assay, an in vitro assay, measures the PAR4 antagonist activity of compounds tested as described in Example A. The PRP assay, an in vitro assay, measures the PAR4 antagonist assay of the compounds tested in the presence of plasma proteins and thrombin agonist as described in Example C.

PAR4, sequence (Q96RI0 18-385): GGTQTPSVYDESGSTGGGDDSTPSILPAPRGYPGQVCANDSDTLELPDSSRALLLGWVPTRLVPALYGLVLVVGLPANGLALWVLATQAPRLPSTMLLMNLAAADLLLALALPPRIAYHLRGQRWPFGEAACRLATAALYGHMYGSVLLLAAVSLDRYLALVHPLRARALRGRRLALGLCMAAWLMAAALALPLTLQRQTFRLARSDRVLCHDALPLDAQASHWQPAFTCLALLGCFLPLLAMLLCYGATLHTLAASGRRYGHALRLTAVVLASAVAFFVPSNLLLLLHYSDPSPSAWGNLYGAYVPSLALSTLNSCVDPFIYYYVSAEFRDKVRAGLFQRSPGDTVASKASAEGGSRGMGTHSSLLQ

Row | EC50 | SMILES
1 | 0.46 nM | COc1cc(OCc2nc(-c3ccnc(F)c3)sc2C)c2cc(-c3cn4nc(OC)sc4n3)oc2c1 [Example 71]
2 | 0.21 nM | COc1cc(OCc2csc(CC(C)C)n2)c2cc(-c3cn4nc(OC)sc4n3)oc2c1 [Example 50]
3 | 1.3 nM | COc1cc(OCc2csc(-c3cccc(C)c3)n2)c2cc(-c3cn4nc(OC)sc4n3)oc2c1 [Example 12]
4 | 4.2 nM | COc1cc(OCc2csc(Nc3cccc(C)c3)n2)c2cc(-c3cn4nc(C)ccc4n3)oc2c1 [Example 267]
5 | 0.82 nM | COc1cc(OCc2csc(-c3ccc(C(F)(F)F)cc3)n2)c2cc(-c3cn4nc(C)ccc4n3)oc2c1 [Example 208, 4-(((6-Methoxy-2-(6-methylimidazo[1,2-b]pyridazin-2-yl)benzofuran-4-yl)oxy)methyl)-2-(4-(trifluoromethyl)phenyl)thiazole]
6 | 1.9 nM | COc1cc(OCc2csc(N3CCN(S(C)(=O)=O)CC3)n2)c2cc(-c3cn4nc(C)ccc4n3)oc2c1 [Example 236]
7 | 92 nM | COc1cc(OCc2csc(-c3ccc(C(=O)NC4COC4)cc3)n2)c2cc(-c3cn4nc(OC)sc4n3)oc2c1 [Example 295]
8 | 0.75 nM | COc1cc(OCc2csc(-c3ccc(C#N)cc3)n2)c2cc(-c3cn4nc(C)ccc4n3)oc2c1 [Example 224]
9 | 1.2 nM | COc1cc(OCc2csc(C3(c4ccc(Cl)cc4)CCOC3)n2)c2cc(-c3cn4nc(C)ccc4n3)oc2c1 (centres unmarked) [Example 241]
10 | 0.52 nM | COc1cc(OCc2csc(-c3ccc(C(=O)N(C)C(C)(C)C)cc3)n2)c2cc(-c3cn4nc(OC)sc4n3)oc2c1 [Example 297]
11 | 1.3 nM | COc1cc(OCc2csc(-c3cnccn3)n2)c2cc(-c3cn4nc(OC)sc4n3)oc2c1 [Example 32]
12 | 0.62 nM | COc1cc(OCc2csc(C3(c4cccc(Cl)c4)CCOCC3)n2)c2cc(-c3cn4nc(OC)sc4n3)oc2c1 [Example 155, 6-(4-((2-(4-(3-Chlorophenyl)tetrahydro-2H-pyran-4-yl)thiazol-4-yl)methoxy)-6-methoxybenzofuran-2-yl)-2-methoxyimidazo[2,1-b][1,3,4]thiadiazole]
13 | 0.29 nM | COc1cc(OCc2csc(C3(F)CCOCC3)n2)c2cc(-c3cn4nc(C)ccc4n3)oc2c1 [Example 212, 2-(4-Fluorotetrahydro-2H-pyran-4-yl)-4-(((6-methoxy-2-(6-methylimidazo[1,2-b]pyridazin-2-yl)benzofuran-4-yl)oxy)methyl)thiazole]
14 | 0.43 nM | CCCN(C(=O)c1ccc(-c2nc(COc3cc(OC)cc4oc(-c5cn6nc(OC)sc6n5)cc34)cs2)cc1)C(C)C1CC1 (centres unmarked) [Example 313]

The remaining lines, values behind:

Row | SMILES | EC50
15 | COc1cc(OCc2csc(N(C)CCC#N)n2)c2cc(-c3cn4nc(C)ccc4n3)oc2c1 [Example 250] | 3.6 nM
16 | CCN(C(=O)c1ccc(-c2nc(COc3cc(OC)cc4oc(-c5cn6nc(OC)sc6n5)cc34)cs2)cc1)C(C)C [Example 287] | 0.48 nM
17 | COc1ccc(-c2nc(COc3cc(OC)cc4oc(-c5cn6nc(C)ccc6n5)cc34)cs2)cc1 [Example 214] | 1.2 nM
18 | COc1nn2cc(-c3cc4c(OCc5csc(-c6ccc(C(=O)N7CCCC7)cc6)n5)cc(F)cc4o3)nc2s1 [Example 183, (4-(4-(((6-Fluoro-2-(2-methoxyimidazo[2,1-b][1,3,4]thiadiazol-6-yl)benzofuran-4-yl)oxy)methyl)thiazol-2-yl)phenyl)(pyrrolidin-1-yl)methanone] | 0.36 nM
19 | COc1cc(OCc2csc(N3CC[S+]([O-])CC3)n2)c2cc(-c3cn4nc(OC)sc4n3)oc2c1 [Example 55] | 0.79 nM
20 | COc1cc(OCc2csc(N3CCC(C)CC3)n2)c2cc(-c3cn4nc(C)ccc4n3)oc2c1 [Example 259] | 0.58 nM
21 | COc1cc(OCc2csc(-c3cccnc3F)n2)c2cc(-c3cn4nc(OC)sc4n3)oc2c1 [Example 78] | 0.4 nM
22 | CNC(=O)c1ccc(-c2nc(COc3cc(OC)cc4oc(-c5cn6nc(OC)sc6n5)cc34)c(C)s2)cc1 [Example 49, 4-(4-(((6-Methoxy-2-(2-methoxyimidazo[2,1-b][1,3,4]thiadiazol-6-yl)benzofuran-4-yl)oxy)methyl)-5-methylthiazol-2-yl)-N-methylbenzamide] | 0.82 nM
23 | COc1cc(OCc2csc(N3CCCOCC3)n2)c2cc(-c3cn4nc(C)ccc4n3)oc2c1 [Example 218] | 0.56 nM
24 | COc1cc(OCc2csc(C3CCN(S(C)(=O)=O)CC3)n2)c2cc(-c3cn4nc(OC)sc4n3)oc2c1 [Example 112, 2-Methoxy-6-(6-methoxy-4-((2-(1-(methylsulfonyl)piperidin-4-yl)thiazol-4-yl)methoxy)benzofuran-2-yl)imidazo[2,1-b][1,3,4]thiadiazole] | 0.37 nM
25 | COC[C@@H]1CCCN1c1nc(COc2cc(OC)cc3oc(-c4cn5nc(OC)sc5n4)cc23)cs1 [Example 107, (S)-2-Methoxy-6-(6-methoxy-4-((2-(2-(methoxymethyl)pyrrolidin-1-yl)thiazol-4-yl)methoxy)benzofuran-2-yl)imidazo[2,1-b][1,3,4]thiadiazole] | 1.3 nM
26 | COc1cc(OCc2coc(N3CC4CCC(C3)O4)n2)c2cc(-c3cn4nc(OC)sc4n3)oc2c1 [Example 98, 3-(4-(((6-Methoxy-2-(2-methoxyimidazo[2,1-b][1,3,4]thiadiazol-6-yl)benzofuran-4-yl)oxy)methyl)oxazol-2-yl)-8-oxa-3-azabicyclo[3.2.1]octane] | 0.37 nM
27 | COc1cccc(Nc2nc(COc3cc(OC)cc4oc(-c5cn6nc(C)ccc6n5)cc34)cs2)c1 [Example 283] | 2.9 nM
28 | COc1cc(OCc2csc(-c3cnco3)n2)c2cc(-c3cn4nc(OC)sc4n3)oc2c1 [Example 117, 5-(4-(((6-methoxy-2-(2-methoxyimidazo[2,1-b][1,3,4]thiadiazol-6-yl)benzofuran-4-yl)oxy)methyl)thiazol-2-yl)oxazole] | 0.43 nM
29 | COc1cc(OCc2nc(N3CCOCC3)sc2C(C)(C)O)c2cc(-c3cn4nc(OC)sc4n3)oc2c1 [Example 91, 2-(4-(((6-Methoxy-2-(2-methoxyimidazo[2,1-b][1,3,4]thiadiazol-6-yl)benzofuran-4-yl)oxy)methyl)-2-morpholinothiazol-5-yl)propan-2-ol] | 0.27 nM
30 | COCCNc1nc(COc2cc(OC)cc3oc(-c4cn5nc(C)ccc5n4)cc23)cs1 [Example 251] | 11 nM
31 | COc1cc(OCc2nc(-c3ccc(C(=O)NCC(F)(F)F)cc3)sc2C)c2cc(-c3cn4nc(OC)sc4n3)oc2c1 [Example 47, 4-(4-(((6-Methoxy-2-(2-methoxyimidazo[2,1-b][1,3,4]thiadiazol-6-yl)benzofuran-4-yl)oxy)methyl)-5-methylthiazol-2-yl)-N-(2,2,2-trifluoroethyl)benzamide] | 0.77 nM
32 | COc1cc(OCc2nc(-c3cccc(COC(C)=O)c3)sc2C)c2cc(-c3cn4nc(OC)sc4n3)oc2c1 [Example 76] | 0.42 nM
33 | COCCC(C)(F)c1nc(COc2cc(OC)cc3oc(-c4cn5nc(OC)sc5n4)cc23)cs1 (centres unmarked) [Example 147] | 0.96 nM
34 | COc1cc(OCc2csc(NC(C)C)n2)c2cc(-c3cn4nc(C)ccc4n3)oc2c1 [Example 255] | 1.7 nM
35 | COc1cc(OCc2csc(C3(F)CCCCC3)n2)c2cc(-c3cn4nc(OC)sc4n3)oc2c1 [Example 134, 6-(4-((2-(1-Fluorocyclohexyl)thiazol-4-yl)methoxy)-6-methoxybenzofuran-2-yl)-2-methoxyimidazo[2,1-b][1,3,4]thiadiazole] | 1.2 nM
